Measurements: publication PMC10073126, “Levosimendan inhibits disulfide tau oligomerization and ameliorates tau pathology in Tau^P301L-BiFC mice” (Experimental & Molecular Medicine, 2023)

Assays:
[1] = biological target: T1, tau (Homo sapiens, UniProt P10636); assay: Tau-BiFC response in tau-BiFC cells (high-content imaging); assay type: cell-based; parameters: expressed in transfected cells; host or cells: HEK293 Tau-BiFC cells (G418-selected); details: 100 μM, 48 h, tauK18^P301L
[2] = biological target: T2, tauK18 (Homo sapiens, UniProt P10636); assay: In vitro tau aggregation assay (thioflavin S); assay type: biochemical; details: heparin-induced, 5 days
T2 construct: under in vitro conditions using a purified tauK18 fragment; 6xHis; made in house; host or cells: E. coli BL21 (DE3)
Experimental: To evaluate the inhibitory effect of drugs on tau aggregation, tauK18 protein (0.5 mg/mL) was incubated with each drug at various concentrations in the presence of DTT (100 μM) and heparin (0.1 mg/mL) at 37 °C for 5 days with vigorous shaking (220 rpm). For the tau disaggregation assay, the preformed aggregation mixture of tauK18 was incubated with each drug at 37 °C for 4 days with vigorous shaking (220 rpm). On the final day of incubation, the level of β-sheet aggregates was evaluated by thioflavin S (ThS) assay. For the ThS assay, 5 μL of each mixture was transferred to a black 384-well plate with 45 μL of PBS containing 10 μM ThS. ThS fluorescence (λex = 430 nm, and λem = 500 nm) was measured by using a Flexstation2 spectrophotometer (Molecular Devices).

[3] = biological target: T3, tau cysteines (Homo sapiens, UniProt P10636); assay: Covalent binding to tau (14C autoradiography, MALDI-TOF of R1-R4 peptides); details: 720 μM with tauK18 72 μM, 2 h, RT
T3 construct: 6xHis; made in house; host or cells: E. coli BL21 (DE3)
Experimental: TauK18 (1 mg/mL, 72 μM) was incubated with ^14C-levosimendan (720 μM) in PBS containing 5% DMSO at RT for 2 h. Then, the mixture was separated on a 15% SDS–PAGE gel under nonreducing conditions and stained with Coomassie blue. For autoradiography, the SDS–PAGE gel was transferred to a PVDF membrane and scanned by Typhoon FLA 7000 IP (GE Healthcare).
Each repeat domain (R1, R2, R3, R4, R2-C291S or R3-C322S, 150 μM) was incubated with levosimendan (molar ratio 1:10 of a tau repeat domain: levosimendan) at RT for 37 h. The samples were mixed with matrix solution (10 mg mL^−1 sinapinic acid in 0.1% (v/v) trifluoroacetic acid/CAN) at a ratio of 1:1. The mixtures were directly spotted onto the MALDI target and dried. Mass spectra were acquired in reflection/linear positive ion mode in the m/z range of 2000–100,000 using an Ultraflex III TOF/TOF mass spectrometer controlled by Flex Control 3.0 (Bruker Daltonics). The default operating conditions were as follows: ion source 1, 25.0 kV; ion source 2, 23.0 kV; lens voltage, 6.0 kV; laser repetition rate = 100 Hz. All spectra were generated automatically in the instrument software and based on averaging 1000 shots from 10 nonoverlapping positions (100 shots/position).

[4] = test system: primary hippocampal neurons; assay: NeuO staining, number of neurons and neurite lengths; assay type: cell-based; details: 3 μM, tauK18^P301L, 48 h
Experimental: (§1) Primary hippocampal neurons were isolated from Day 18 embryonic Sprague‒Dawley rat brains as described previously. The neurons were seeded at a density of 3.5 × 10^5 cells per well on a poly-D-lysine-coated 6-well plate and maintained in neurobasal medium at 37 °C in a humidified atmosphere of 5% CO2. The neurobasal medium contained 2% B27 supplement, 0.5 mM GlutaMAX, 100 units/mL penicillin, and 100 μg/mL streptomycin. Every 3 days, 50% of the medium was replaced with fresh neurobasal medium. At DIV10, neurons were incubated with MB, LMTM (3 µM), or levosimendan (10 µM) in the presence of tauK18^P301L (10 µg/mL) for 48 h.
At DIV10, neurons grown on a 96-well plate were treated with MB, LMTM (3 µM), or levosimendan (10 µM) followed by tauK18^P301L activation. After 48 h, the neurons were stained with NueO (50 nM), a neuron-selective probe. NeuO fluorescence (λex = 460–490 nm and λem = 518–580 nm) images were acquired by using Operetta® (PerkinElmer). The number of neurons and total lengths of neurites were quantified by Harmony 3.1 software (PerkinElmer). Error bars represent the standard deviations (S.D.) of four replicate experiments.

[5] = test system: tau; assay: Tau immunoblot of primary hippocampal neuron lysates; assay type: cell-based, rat; details: 3 μM, nonreducing SDS-PAGE, primary neurons, tauK18^P301L; control 1.8 ± 0.3-fold
Experimental: Band intensity was quantified using ImageJ software (NIH). All data were normalized to β-actin.
as §1

[6] = test system: Tau-BiFC cells; assay: Flow cytometry analysis of tau-BiFC cells; assay type: cell-based, human; details: drug 5 μM with tauK18^P301L
Experimental: After 24 h, BiFC cells were collected and subjected to flow cytometry analysis using a BD FACSLyric^TM cytometer (BD Biosciences). A total of 50,000 events were acquired per sample. All samples were gated using the same gating tree and gate positions: side scatter area (SSC-A) vs. forward scatter area (FSC-A) for viable and singlet cell populations. BiFC fluorescence was excited by a 488 nm wave laser and collected through a 527/32 bandpass filter.

[7] = biological target: T1, tau; assay: Tau immunoblot of tau-BiFC cell lysates (reducing and nonreducing SDS-PAGE); details: 5 μM, tauK18^P301L-activated tau-BiFC cells
Experimental: For reducing SDS‒PAGE analysis, cell or brain lysates were mixed with 4x Laemmli buffer containing 10% β-mercaptoethanol (BME) and boiled at 97 °C for 5 min. For nonreducing SDS‒PAGE analysis, cell or brain lysates were mixed with 4x Laemmli buffer without BME. For immunoblot analysis, 10 μg of each lysate was separated on a 10% SDS–PAGE gel and transferred to a PVDF membrane. The levels of total tau and phosphorylated tau were detected by anti-tau antibodies against 2B11 (IBL), Tau5 (Abcam), pSer199 (Abcam), pSer396 (Abcam), and pThr205 (Abcam). […] Band intensity was quantified using ImageJ software (NIH). All data were normalized to β-actin.

[8] = biological target: T2, tauK18; assay: TauK18 oligomerization assay in vitro (SDS-PAGE); assay type: biochemical; details: 100 μM, 5 h, nonreducing SDS-PAGE; DMSO control 50 ± 1.1%
Experimental: To induce tau oligomerization, tauK18 (0.5 mg/mL dissolved in PBS, pH 7.4) was incubated with each drug in the presence of DTT (100 μM) and heparin (0.1 mg/mL) at RT for 5 h with vigorous shaking. Then, tau oligomers were separated on 4–20% SDS‒PAGE gels under reducing and nonreducing conditions and visualized by Coomassie blue staining.

[9] = Cell viability of tau-BiFC cells (number of nuclei); assay type: cell-based, human; details: human, HEK293 Tau-BiFC cells, 48 h of treatment
Experimental: HEK293 Tau-BiFC cells were maintained in Dulbecco’s modified Eagle medium (DMEM) supplemented with 10% fetal bovine serum (FBS), 100 units/mL penicillin, 100 µg/mL streptomycin and 100 µg/mL Geneticin (G418) in a humidified atmosphere containing 5% CO2 at 37 °C. Tau-BiFC cells were activated by treatment with FK (30 μM) or tauK18^P301L (5 μg/mL).
For screening of FDA-approved & Passed Phase I Drug Library, tau-BiFC cells were plated on µ-clear 384-well plates. The next day, the cells were cotreated with forskolin and 1,018 library compounds at a concentration of 10 µM. MB and LMTM (3 µM) were used as positive controls. After 46 h, nuclei were counterstained with Hoechst (Invitrogen). BiFC (λex = 460–490 nm and λem = 500–550 nm) and Hoechst (λex = 355–385 nm and λem = 430–500 nm) fluorescence images were acquired automatically by using Operetta® (PerkinElmer). BiFC fluorescence intensity and the number of nuclei were quantified using Harmony 3.1 software (PerkinElmer). Integrated tau-BiFC intensity represents the area of selected cell X mean fluorescence intensity. The means and standard deviations (S.D.) of BiFC fluorescence intensities and the number of nuclei were plotted using GraphPad Prism.

[10] = biological target: tauK18 fragment; assay: non-reducing SDS-PAGE with Coomassie staining (disulfide-linked oligomers); tauK18 0.5 mg/mL in PBS pH 7.4 with DTT (100 uM) and heparin (0.1 mg/mL), RT, 5 h, shaking; 4-20% gel; DMSO control, MB, LMTM or levosimendan (10, 30, 100 uM)

T1 sequence (P10636 1-441 isoform P10636-8): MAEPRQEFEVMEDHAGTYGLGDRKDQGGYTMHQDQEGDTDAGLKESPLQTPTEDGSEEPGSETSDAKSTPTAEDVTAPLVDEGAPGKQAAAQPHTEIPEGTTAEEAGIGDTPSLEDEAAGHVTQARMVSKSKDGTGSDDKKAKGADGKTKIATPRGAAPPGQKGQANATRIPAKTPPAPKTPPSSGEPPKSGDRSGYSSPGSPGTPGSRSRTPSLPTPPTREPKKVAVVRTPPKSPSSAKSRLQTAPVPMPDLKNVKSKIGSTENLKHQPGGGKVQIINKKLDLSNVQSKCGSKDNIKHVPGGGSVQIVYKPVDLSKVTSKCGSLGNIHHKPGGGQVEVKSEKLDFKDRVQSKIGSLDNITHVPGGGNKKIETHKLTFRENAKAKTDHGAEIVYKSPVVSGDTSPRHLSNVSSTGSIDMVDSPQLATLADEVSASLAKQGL
T1 sequence (P10636 1-441 isoform P10636-8): as above
T2 sequence (P10636 561-685 limits assumed): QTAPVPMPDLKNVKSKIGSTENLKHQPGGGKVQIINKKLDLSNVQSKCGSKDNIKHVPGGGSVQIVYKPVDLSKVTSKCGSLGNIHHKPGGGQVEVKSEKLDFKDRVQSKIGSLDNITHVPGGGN
T3 sequence (P10636 561-689 limits assumed): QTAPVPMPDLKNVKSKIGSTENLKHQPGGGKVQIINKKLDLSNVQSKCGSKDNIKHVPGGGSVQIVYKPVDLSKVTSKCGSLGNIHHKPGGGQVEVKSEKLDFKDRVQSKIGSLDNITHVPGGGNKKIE

In the case of `CC(=O)Nc1ccc(C2=NNC(=O)C[C@H]2C)cc1` [OR-1896], the “Inhibition of tau-BiFC fluorescence increase” value [1] is reported as “did not inhibit the tau-BiFC fluorescence increase” and the “Inhibition of tau aggregation in vitro (ThS response)” value [2] is reported as “did not inhibit tau aggregation in vitro”.

In the case of `CC1CC(=O)NN=C1c1ccc(NN=C(C#N)[14C]#N)cc1` (stereo not shown) [^14C-levosimendan], the “Covalent labeling of tau on nonreducing SDS-PAGE (14C-radiography)” value [3] is reported as “covalent attachment to tau”.

With `CN(C)c1ccc2nc3ccc(=[N+](C)C)cc-3sc2c1` [MB, methylene blue] the “Number of NeuO-stained live neurons” value ([4]; basal 1925 ± 66, control 943 ± 30) was 986 ± 150 neurons, the Neurite length ([4]; control 142.8 ± 17.8 μm) was “did not show a significant effect on neuronal integrity” and the “Level of disulfide-linked tau oligomers compared to basal” value [5] was 2.3 ± 0.5 fold. For the same compound, the “P1: intact cell population out of total cells” value ([6]; 24 h) was 13.7%, the “Median BiFC fluorescence intensity of BiFC-responding cells” value ([6]; BiFC^ON control […] ± 62, basal 332 ± 110) was 648 ± 49 and the “Level of disulfide-linked tau oligomers compared to basal” value ([7]; nonreducing SDS-PAGE, control 2.4 ± 0.4-fold) was 1.6 ± 0.3 fold. The “Level of pS199-positive monomers compared to basal” value ([7]; reducing gel) was 0.2 ± 0.1 fold, the “Level of pS199-positive oligomers compared to basal” value ([7]; reducing gel) was 0.4 ± 0.2 fold and the “Level of pT205-positive monomers compared to basal” value ([7]; reducing gel) was 0.1 ± 0.1 fold. The “Level of pT205-positive oligomers compared to basal” value ([7]; reducing gel) was 0.7 ± 0.3 fold, the “Level of disulfide-linked tau oligomers (of total tau)” value [8] was 77.6 ± 2.0% and the GI50 at 48 h ([9]; Tau-BiFC^ON by forskolin (30 μM)) was 6.2 ± 0.4 µM. It also gave a GI50 at 48 h ([9]; Tau-BiFC^ON by tauK18^P301L (5 μg/mL)) of 7.1 ± 0.3 µM.

tauK18 fragment (domain or fragment) showed a percent of total tau as disulfide-linked oligomers (DMSO control) [10] of 50%.

With `C[C@@H]1CC(=O)NN=C1c1ccc(N)cc1` [OR-1855] the “Inhibition of tau-BiFC fluorescence increase” value [1] was “did not inhibit the tau-BiFC fluorescence increase” and the “Inhibition of tau aggregation in vitro (ThS response)” value [2] was “did not inhibit tau aggregation in vitro”.
